This note sets out measurements from article PMC8573827, “Zinc protoporphyrin binding to telomerase complexes and inhibition of telomerase activity” (Pharmacology Research & Perspectives, 2021).

Where two headings read alike, the source gives them in different places.

In test [1] the test system is Huh7 cells. Briefly: MTT cell proliferation/viability assay, Huh7. In kind it is cell-based, human. Particulars: Huh7 vs U2OS, 72 h. On the procedure:
MPPs were tested for effects on cell proliferation and viability using MTT (3‐(4,5‐dimethylthiazol‐2‐yl)‐2,5‐diphenyltetrazolium bromide) dye conversion assay (Cell Titer 96, Promega) as we described[22] with some modifications. Cells were plated into 96 well plates and allowed to attach overnight. MPPs were added to the cultures and then incubated for the times indicated. At assay time, MTT reagent was added and absorbance measured at 570 nm. Controls included buffer blanks containing MPP because of background absorbances reported for MPPs by us[22] and others.[23] The formula used for determination of viable cells relative to controls was: %viablecells=(abssample‐absblank)/(absconrtrol‐absblank)×100

Test [2] has as its target T1, Taq DNA polymerase (Thermus aquaticus, UniProt P19821).
T1 construct: purchased Perkin‐Elmer Cetus, Norwalk, CT
Briefly: Taq polymerase inhibition test, MPP added after the telomerase extension step of TRAP. The class given is biochemical. On the procedure: (§1) For TRAP assay, a Quantitative Telomerase Detection Kit (US Biomax, Inc) was used to assay cellular lysates or TERT immunoprecipitates (IP) according to the manufacturer's directions. Relative telomerase activity was derived from a standard curve of reference samples and data were analyzed using relative fluorescence units as compared to controls. In some cases, telomerase reaction products were visualized and quantified with TRAPeze system (EMD/Millipore). After separation of the DNA products using 10% non‐denaturing PAGE and SYBR fluorescence labeling [1x SYBR safe DNA gel stain (Invitrogen)], gel bands were imaged with iBright 1500 (Invitrogen). The intensity of the sample's TRAP ladder and internal control was first measured using GelAnalyzer [GelAnalyzer 19.1 (www.gelanalyzer.com )] as recommended. Then, the relative telomerase activity was determined by the ratio of the intensity of the sample's TRAP ladder (telomerase products, TP) to that of the internal control (IC) band.
Because of concerns that some quadruplex ligands inhibit Taq DNA polymerase in addition to telomerase, we assayed MPP inhibition at both steps of the TRAP procedure with a strategy similar to that of others.[36] Using equivalent extracts but separate assays, MPP was either included in the telomerase RT extension step or the extension step was conducted without MPP and then MPP added only for the amplification steps with Taq DNA polymerase. To avoid further potential errors introduced by Real‐time quantification, TRAP products were labeled with SYBR green, visualized on denaturing gels, and each lane was quantified by density measurements as described in the Methods. The latter step also ruled out the possibility that decreases in activity were artifactual due to fluorescence signal quenching by some MPPs.[37] […] All three MPPs had minimal effects on Taq polymerase […] and the slight inhibition of Taq polymerase seen for ZnPP was not directly concentration‐dependent.
Enzymatic extracts were prepared from semi-confluent Huh7 cells and aliquots were assayed in triplicate using TRAP assay. CoPP was added to RT-PCR reactions either before or after the RT telomere elongation step to test whether it inhibited Taq polymerase. Visualization of amplified telomeric products was on 12% denaturing gels using SYBR fluorescence labelling (upper panels). Quantification was with densitometry as described in Methods and plot shown (lower panel). Plotted points represent the mean +/- SD with n =3. (IC)= internal Taq polymerase control.

Test [3] relates to TERT, β-catenin, and cyclin D1 expression. Briefly: Western blot of proliferative proteins in Huh7 cells. The class given is cell-based, human. Particulars: Huh7, 48 h. On the procedure: For SDS ‐PAGE, cellular lysates, and protein preparations such as IP were dissolved in Laemmli buffer, boiled for 1 min and separated on denaturing SDS gels as described.[28] After electrophoretic transfer of separated proteins to nitrocellulose sheets, western blot immunoassays employed enhanced chemiluminescence for signal detection (ECL^TM Prime, Amersham).[28]

For test [4], the target named is T2, telomerase (Homo sapiens, UniProt O14746). As to the kind of experiment: Direct α-32P-dGTP telomerase extension assay, IP eluates of HEK-293T cells overexpressing TERT, TERC and dyskerin. In kind it is biochemical. Also on record: purchased Abbexa Ltd (UK) Abx069991; host or cells: HEK-293T cells overexpressing TERT, TERC and dyskerin. The following applies: Table 2b; mean of 2–4 experiments. On the procedure:
For direct telomerase activity assay, a modified procedure of Tomlinson et al[26] was used. Briefly, HEK‐293T cell pellet from 10^7 cells overexpressing TERT, TERC, and dyskerin was obtained from Abbexa Ltd (UK. Abx069991). The whole‐cell lysate was produced using 1ml buffer A [20 mM HEPES‐KOH buffer (pH 8), 300 mM KCl, 2 mM MgCl2, 0.1% v/v Triton X‐100, 10% v/v glycerol]. Immunoprecipitation of telomerase was performed with anti‐hTERT polyclonal sheep antibody (abx120550, Abbexa, U.K.). The telomerase was finally eluted with hTERT peptide (abx069990, Abbexa, U.K.). 10µl of eluates were mixed with different concentrations of MPP and incubated on ice for 2 h. Then the pellet‐MPP complex was added to the extension reaction mixture composed of 1x telomerase buffer, 300 mM KCl, 1 µM Bio‐L‐18GGG, 1 mM dATP, 1 mM dTTP, 10 µM dGTP, 20 µCi α‐^32P‐dGTP, 10 mM DTT, 5’ biotinylated DNA substrate (5’‐CTAGACCTGTCATCA(TTAGGG)3‐3’) and 10% glycerol. The reaction was conducted at 37 °C for 2 h. The purification of telomerase extension products employed Dynabeads M‐280 streptavidin. Five microliters of purified products were loaded on 6% sequencing gel (TBE‐UREA denaturing gel) with Model S2 Sequencing Gel Electrophoresis Apparatus (LabRepCo, Horsham, PA). […] This screen was then scanned using a STORM phosphorimager (Molecular Dynamics), and bands were quantified using GelAnalyzer as described above. […]
Target sequence in this assay (O14746 whole entry): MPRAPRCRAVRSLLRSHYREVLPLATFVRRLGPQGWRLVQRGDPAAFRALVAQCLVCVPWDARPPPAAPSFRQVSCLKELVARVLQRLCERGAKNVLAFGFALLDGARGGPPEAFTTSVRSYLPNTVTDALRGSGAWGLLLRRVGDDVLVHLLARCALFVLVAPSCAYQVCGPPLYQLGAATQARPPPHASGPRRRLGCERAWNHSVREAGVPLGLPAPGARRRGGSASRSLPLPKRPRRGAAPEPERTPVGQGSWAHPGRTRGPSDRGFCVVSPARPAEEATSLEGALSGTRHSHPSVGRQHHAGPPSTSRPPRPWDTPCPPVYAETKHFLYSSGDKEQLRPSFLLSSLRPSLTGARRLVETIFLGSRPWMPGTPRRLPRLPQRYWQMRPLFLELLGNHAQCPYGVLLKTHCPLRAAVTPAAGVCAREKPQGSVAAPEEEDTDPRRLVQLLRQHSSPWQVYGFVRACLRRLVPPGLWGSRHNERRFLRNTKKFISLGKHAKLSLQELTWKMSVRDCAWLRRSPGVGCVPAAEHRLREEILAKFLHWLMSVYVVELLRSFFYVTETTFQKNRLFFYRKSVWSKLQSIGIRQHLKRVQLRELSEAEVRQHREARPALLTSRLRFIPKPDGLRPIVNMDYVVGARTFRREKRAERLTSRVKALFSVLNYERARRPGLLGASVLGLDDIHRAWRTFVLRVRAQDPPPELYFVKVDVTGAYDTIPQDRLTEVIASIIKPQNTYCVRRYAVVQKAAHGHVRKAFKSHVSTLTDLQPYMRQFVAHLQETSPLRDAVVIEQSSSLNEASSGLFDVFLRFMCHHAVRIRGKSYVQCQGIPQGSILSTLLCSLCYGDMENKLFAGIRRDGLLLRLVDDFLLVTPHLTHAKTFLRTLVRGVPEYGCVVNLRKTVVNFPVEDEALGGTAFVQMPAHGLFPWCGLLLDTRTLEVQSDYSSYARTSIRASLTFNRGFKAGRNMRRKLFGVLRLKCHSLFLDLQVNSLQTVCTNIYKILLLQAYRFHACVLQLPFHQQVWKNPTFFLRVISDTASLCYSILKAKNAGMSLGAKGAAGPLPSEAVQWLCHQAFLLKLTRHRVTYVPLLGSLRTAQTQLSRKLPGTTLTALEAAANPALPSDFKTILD
Target sequence in this assay (O60832 whole entry partner): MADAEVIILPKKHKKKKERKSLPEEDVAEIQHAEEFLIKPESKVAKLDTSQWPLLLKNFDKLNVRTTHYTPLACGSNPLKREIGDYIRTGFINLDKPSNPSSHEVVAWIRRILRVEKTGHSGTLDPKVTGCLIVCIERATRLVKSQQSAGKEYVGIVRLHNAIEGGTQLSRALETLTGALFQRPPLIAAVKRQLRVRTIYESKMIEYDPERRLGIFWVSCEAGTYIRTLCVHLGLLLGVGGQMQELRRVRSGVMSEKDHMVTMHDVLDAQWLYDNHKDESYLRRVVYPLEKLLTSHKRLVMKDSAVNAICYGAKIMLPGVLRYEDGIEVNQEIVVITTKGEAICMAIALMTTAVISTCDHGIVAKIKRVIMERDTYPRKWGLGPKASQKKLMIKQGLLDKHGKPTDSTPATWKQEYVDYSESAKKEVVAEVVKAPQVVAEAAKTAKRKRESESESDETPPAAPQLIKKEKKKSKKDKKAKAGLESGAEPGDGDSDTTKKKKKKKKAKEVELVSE
Target sequence in this assay (Q9NPE3 whole entry partner): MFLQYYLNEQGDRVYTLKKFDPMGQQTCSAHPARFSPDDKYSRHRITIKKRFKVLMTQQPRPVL
Target sequence in this assay (Q9NX24 whole entry partner): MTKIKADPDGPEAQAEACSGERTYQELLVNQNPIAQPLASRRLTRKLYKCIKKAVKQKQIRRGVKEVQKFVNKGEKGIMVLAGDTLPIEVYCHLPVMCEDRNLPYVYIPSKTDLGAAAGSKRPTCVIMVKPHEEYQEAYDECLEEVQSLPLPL
Target sequence in this assay (Q9NY12 whole entry partner): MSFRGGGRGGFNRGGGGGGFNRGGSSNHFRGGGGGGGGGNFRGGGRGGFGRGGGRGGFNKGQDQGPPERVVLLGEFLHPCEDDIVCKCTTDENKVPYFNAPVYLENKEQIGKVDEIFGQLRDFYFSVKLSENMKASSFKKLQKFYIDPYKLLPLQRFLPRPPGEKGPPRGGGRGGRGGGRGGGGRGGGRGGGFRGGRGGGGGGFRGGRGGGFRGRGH

Test [5] addresses T3, telomerase activity in Hek293 cells (Homo sapiens, UniProt O14746).
T3 construct: Log phase Huh7, Hek293 and Huh5.15 HCV replicon cells; endogenous in cells; host or cells: Hek293 (wild type)
Briefly: Telomerase activity by TRAP after incubation of intact Hek293 cells with MPP. The class given is cell-based. On the procedure: (§2) Telomerase reverse transcriptase (TERT) enzymatic activity was determined using Telomeric Repeat Amplification Protocol (TRAP) with Real‐time quantification as described previously,[25] or measured directly using α‐^32P‐dGTP incorporation as described[26] with modifications as below.
as §1
(§3) The EC50 was the extracellular concentration of MPP inhibitor calculated to result in 50% reduction of cellular telomerase activity after incubation in whole cells. Similarly, IC50 was the concentration of MPP inhibitor necessary to inhibit 50% of telomerase enzyme activity in vitro in cellular lysates. Both were calculated using GraphPad as directed and verified graphically on plots of enzyme activity vs inhibitor concentration.

Test [6] concerns the target T2, telomerase. Briefly: TRAP (TRAPeze) telomerase activity assay in Huh7 cellular lysates/enzymatic extracts. In kind it is biochemical. Also on record: Enzymatic extracts were prepared from semi‐confluent phase Huh7 cells and aliquots were assayed in triplicate using TRAP assay; endogenous in cells; host or cells: Huh7. On the procedure: as §2, §1, §3
Target sequence in this assay (O14746 whole entry): as the sequence (O14746 whole entry) above
Target sequence in this assay (O60832 whole entry partner): as the sequence (O60832 whole entry partner) above
Target sequence in this assay (Q9NPE3 whole entry partner): as the sequence (Q9NPE3 whole entry partner) above
Target sequence in this assay (Q9NX24 whole entry partner): as the sequence (Q9NX24 whole entry partner) above
Target sequence in this assay (Q9NY12 whole entry partner): as the sequence (Q9NY12 whole entry partner) above
Target sequence in this assay (Q9BUR4 whole entry partner): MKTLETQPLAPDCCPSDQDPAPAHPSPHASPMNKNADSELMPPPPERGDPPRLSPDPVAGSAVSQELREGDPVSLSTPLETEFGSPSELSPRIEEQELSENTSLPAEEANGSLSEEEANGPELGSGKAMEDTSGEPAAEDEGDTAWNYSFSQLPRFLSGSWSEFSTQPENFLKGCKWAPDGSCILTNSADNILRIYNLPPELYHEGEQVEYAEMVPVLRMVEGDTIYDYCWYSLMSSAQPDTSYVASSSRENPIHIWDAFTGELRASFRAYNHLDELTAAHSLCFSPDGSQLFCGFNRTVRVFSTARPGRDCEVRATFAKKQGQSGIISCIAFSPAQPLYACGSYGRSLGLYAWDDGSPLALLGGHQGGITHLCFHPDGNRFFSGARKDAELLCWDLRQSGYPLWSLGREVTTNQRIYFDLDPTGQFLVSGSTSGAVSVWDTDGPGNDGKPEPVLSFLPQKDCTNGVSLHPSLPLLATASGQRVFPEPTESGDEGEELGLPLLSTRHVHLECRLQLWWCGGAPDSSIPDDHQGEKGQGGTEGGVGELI
Test [7] concerns the target T4, telomerase activity in Huh7 cells (Homo sapiens, UniProt O14746).
T4 construct: Enzymatic extracts were prepared from semi‐confluent phase Huh7 cells and aliquots were assayed in triplicate using TRAP assay; endogenous in cells; host or cells: Huh7
As to the kind of experiment: Telomerase activity by TRAP after incubation of intact Huh7 cells with MPP. In kind it is cell-based. On the procedure: as §2, §1, §3

Test [8] relates to high molecular weight complexes containing telomerase. Briefly: Fluorescent labelling of cellular lysate complexes on non-denaturing 0.8% agarose gels. The class given is binding, human. The following applies: Huh7 lysates, fluorescence visualization. The method, then: 0.8% Agarose gels were run in Tris‐Borate‐EDTA buffer using standard slab gels as described for high molecular weight complexes.[27] Cell lysates were produced by lysing Hek293 and Huh7 cells in NP40 buffer (25 mM HEPES‐KOH, 150 mM KCl, 1.5mM MgCl2, 10% glycerol, 0.5% NP40, 5 mM 2ME, pH 7.5 supplemented with protease inhibitors) for 30 min on ice. Extracts were clarified by centrifugation for 16 000 g for 10 min. The protein concentration was determined by Bradford assay. The indicated amounts of proteins were treated with different amounts of ZnPP for 2 h on ice, and then separated on 0.8% Agarose gels prepared with 0.5xTris‐Borate‐EDTA (TBE) buffer. The gels were run at 100 V for 2 h at 4 °C in 0.5x TBE buffer. […] No antibody and normal rabbit IgG (sc‐2027, Santa Cruz Biotechnology) were included as controls. The IP products were treated with ZnPP and electrophoresed as above. Free ZnPP and ZnPP bound to large complexes were visualized using a wide‐wavelength UV lightbox or with red fluorescence using excitation (EX) 608–632 nm and emission (EM) 675–720 nm. Thyroglobulin (670 kD), a heavy MW marker, was run in parallel lanes and visualized with Coomassie Blue staining or fluorescence to size the complexes. In some cases, cell lysates or IP were incubated with RNase A (Life Technologies, NY); or DNase 1 (Qiagen, CA) 100 µg/ml for 1 h at 4 °C prior to electrophoresis.

Where [9] appears, read: TRAP, MPP added for the amplification steps only.
[10] abbreviates: Figure 3A middle panel, 48 h, read-out: EC50 of telomerase activity in cultured Hek293 cells.
The mark [11] stands for this setting: Table 2d, mean of 2–4 experiments, 48 h incubation, read-out: EC50, intact Hek293 cells [TRAP].
The mark [12] stands for this setting: Table 2a, mean of 2–4 experiments, 6 inhibitor concentrations 0–20 µM, read-out: IC50, cellular lysates [Trapeze].
Setting [13] is: individual experiment, Figure 3B-D, gel densitometry, read-out: IC50 of telomerase activity, TRAP in Huh7 extracts.
Setting [14] is: Figure 3A upper panel, 48 h, read-out: EC50 of telomerase activity in cultured Huh7 cells.
Setting [15] is: Table 2c, mean of 2–4 experiments, 48 h incubation, read-out: EC50, intact Huh7 cells [TRAP].

T4 sequence (O14746 whole entry): as the sequence (O14746 whole entry) above
T4 sequence (O60832 whole entry partner): as the sequence (O60832 whole entry partner) above
T4 sequence (Q9NPE3 whole entry partner): as the sequence (Q9NPE3 whole entry partner) above
T4 sequence (Q9NX24 whole entry partner): as the sequence (Q9NX24 whole entry partner) above
T4 sequence (Q9NY12 whole entry partner): as the sequence (Q9NY12 whole entry partner) above
T4 sequence (Q9BUR4 whole entry partner): as the sequence (Q9BUR4 whole entry partner) above
T3 sequence (O14746 whole entry): as the sequence (O14746 whole entry) above
T3 sequence (O60832 whole entry partner): as the sequence (O60832 whole entry partner) above
T3 sequence (Q9NPE3 whole entry partner): as the sequence (Q9NPE3 whole entry partner) above
T3 sequence (Q9NX24 whole entry partner): as the sequence (Q9NX24 whole entry partner) above
T3 sequence (Q9NY12 whole entry partner): as the sequence (Q9NY12 whole entry partner) above
T3 sequence (Q9BUR4 whole entry partner): as the sequence (Q9BUR4 whole entry partner) above
T1 sequence (P19821 whole entry): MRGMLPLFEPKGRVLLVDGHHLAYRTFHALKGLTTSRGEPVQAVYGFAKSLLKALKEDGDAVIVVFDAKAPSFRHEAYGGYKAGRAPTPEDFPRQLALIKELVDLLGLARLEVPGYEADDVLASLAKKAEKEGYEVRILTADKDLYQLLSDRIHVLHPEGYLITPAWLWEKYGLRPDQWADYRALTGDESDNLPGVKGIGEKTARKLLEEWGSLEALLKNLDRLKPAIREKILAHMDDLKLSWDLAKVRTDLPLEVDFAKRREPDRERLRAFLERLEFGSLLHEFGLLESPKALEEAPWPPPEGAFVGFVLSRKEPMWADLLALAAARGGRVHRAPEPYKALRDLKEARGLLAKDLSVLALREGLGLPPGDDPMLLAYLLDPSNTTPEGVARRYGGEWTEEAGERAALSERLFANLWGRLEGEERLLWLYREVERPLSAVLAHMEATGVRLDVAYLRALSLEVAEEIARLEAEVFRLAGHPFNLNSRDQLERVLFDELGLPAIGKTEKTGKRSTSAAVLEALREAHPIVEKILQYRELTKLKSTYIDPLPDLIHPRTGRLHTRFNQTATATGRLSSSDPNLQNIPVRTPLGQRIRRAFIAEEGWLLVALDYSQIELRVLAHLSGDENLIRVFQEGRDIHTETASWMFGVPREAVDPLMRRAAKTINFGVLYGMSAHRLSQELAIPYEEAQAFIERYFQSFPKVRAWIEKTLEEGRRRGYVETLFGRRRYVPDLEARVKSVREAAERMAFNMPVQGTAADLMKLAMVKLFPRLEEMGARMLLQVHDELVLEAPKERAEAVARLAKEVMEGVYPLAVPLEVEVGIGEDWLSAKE

As for `C/C(=C\C(=O)Nc1ccccc1C(=O)O)c1ccc2ccccc2c1` [BIBR, reference compound], in test [1], the “Effect on proliferation, telomerase-expressing vs telomerase negative line” value was “greater propensity to decrease proliferation”.
Regarding `C=CC1=C(C)c2cc3[n-]c(cc4nc(cc5[n-]c(cc1n2)c(C)c5CCC(=O)[O-])C(CCC(=O)[O-])=C4C)c(C)c3C=C.[Co+2].[H+].[H+]` [CoPP, cobalt protoporphyrin], the “Effect on Taq polymerase” value in test [2] (setting [9]) is recorded as “clearly inhibited Taq polymerase”; in test [2] (concentrations of 5-10 µM, Figure S2), “potent antagonist”. In addition, the “Effect on expression of TERT, β-catenin and cyclin D1 (western blot)” value (from here on “Effect on expression of TERT”) in test [3] was “failed to significantly alter”.
Broadly, the IC50 is the point on the concentration scale where inhibition reaches its midpoint. Usually EC50 stands for the concentration that produces a half-maximal response. Turning to `C=CC1=C(C)c2cc3[n-]c(cc4[n-]c(cc5nc(cc1n2)C(C)=C5C=C)c(C)c4CCC(=O)O)c(CCC(=O)O)c3C.[Fe+2]` [FePP, iron protoporphyrin (heme)], the “Effect on Taq polymerase” value in test [2] (setting [9]) is “minimal inhibition”. Moreover, the values for the IC50 in test [4], in test [6] (setting [12]) and in test [6] (setting [13]) were 18.3 µM, over 20 µM and over 10 µM, respectively. Moreover, the EC50 in test [5] (setting [10]) is over 10 µM; in test [5] (setting [11]), over 20 µM; in test [7] (setting [14]) it was over 10 µM; in test [7] (setting [15]), over 20 µM. Moreover, the “Effect on expression of TERT” value in test [3] is on record as “failed to significantly alter”.
Turning to `C=Cc1c2[n-]c(c1C)/C=c1\[n-]/c(c(C)c1C=C)=C\c1[n-]c(c(CCC(=O)O)c1C)/C=c1\[n-]c(c(C)c1CCC(=O)O)=C2.[Sn+4]` [SnPP, tin protoporphyrin], the “Labelling/binding of cellular complexes on agarose gels” value in test [8] is listed as “did not label a discernable cellular complex”. Also, the “Effect on Taq polymerase” value in test [2] (setting [9]) was “minimal inhibition”. In addition, the results for the concentration for half-maximal inhibition (IC50) in test [4], in test [6] (setting [12]) and in test [6] (setting [13]) were over 20 µM, 12 µM and over 10 µM, respectively. The EC50 in test [5] (setting [10]) was over 10 µM; in test [5] (setting [11]) it was over 20 µM; in test [7] (setting [14]), over 10 µM; in test [7] (setting [15]), 10.8 µM. In addition, the “Effect on expression of TERT” value in test [3] is reported as “failed to significantly alter”.
